Assay results as given in article PMC12583827, “Harnessing microbial-derived metabolites in the urinary tract to prevent infection induced catheter encrustation” (Nature Communications, 2025).
Structures can show the parent of a compound that is named as a salt. Where two headings read alike, the source gives them in different places.

Legend:
[1] = target: T1, urease of P. mirabilis HI4320 cell free extracts (Proteus mirabilis, UniProt P17086); assay type: biochemical
T1 construct: 20ul of cell-free extract were distributed into a 96-well plate in place of the whole cell bacterial suspensions; endogenous in cells; host or cells: Proteus mirabilis HI4320, urea-induced; freeze-thaw and sonication lysate, clarified supernatant
T1 sequence (P17088 whole entry): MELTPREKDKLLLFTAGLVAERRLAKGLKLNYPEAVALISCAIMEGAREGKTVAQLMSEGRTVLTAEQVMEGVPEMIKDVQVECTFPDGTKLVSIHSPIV
T1 sequence (P17086 whole entry): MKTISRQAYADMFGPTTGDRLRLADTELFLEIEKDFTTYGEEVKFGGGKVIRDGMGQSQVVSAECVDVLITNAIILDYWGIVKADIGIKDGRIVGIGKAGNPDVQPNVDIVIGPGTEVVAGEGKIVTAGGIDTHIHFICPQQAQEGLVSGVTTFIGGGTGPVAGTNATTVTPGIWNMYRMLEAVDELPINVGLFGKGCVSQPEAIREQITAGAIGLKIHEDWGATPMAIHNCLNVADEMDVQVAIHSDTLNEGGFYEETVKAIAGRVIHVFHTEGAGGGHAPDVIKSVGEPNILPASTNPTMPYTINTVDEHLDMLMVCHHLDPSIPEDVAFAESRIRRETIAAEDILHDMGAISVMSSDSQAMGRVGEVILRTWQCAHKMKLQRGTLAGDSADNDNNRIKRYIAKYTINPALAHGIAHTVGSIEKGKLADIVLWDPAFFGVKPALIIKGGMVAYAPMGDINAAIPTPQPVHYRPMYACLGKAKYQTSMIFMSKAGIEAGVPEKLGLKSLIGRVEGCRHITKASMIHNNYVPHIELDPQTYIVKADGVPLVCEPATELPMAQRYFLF
T1 sequence (P17087 whole entry, further chain): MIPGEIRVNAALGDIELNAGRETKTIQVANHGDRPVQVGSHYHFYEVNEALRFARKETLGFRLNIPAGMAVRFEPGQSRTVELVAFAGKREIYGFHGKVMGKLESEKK
Experimental: To measure urease activity of the cell free extracts of P. mirabilis, P. mirabilis was cultured for ~18 h in LB broth and then sub cultured until it reached mid-log growth phase (OD600 0.2-0.5). Cultures were spun down to pellet at 10,000 rcf for 10 minutes and resuspended in saline to a final OD600 of 1.0. Cultures were then diluted 1:10 in potassium phosphate buffer pH7 supplemented with 500 mM urea and incubated at 37 °C with shaking for 1 h to induce its urease enzyme production. The isogenic urease mutant Pm ureF::kan (Supplementary Data 1) served as negative control. Cultures then were spun down to pellet at 10,000 rcf for 10 minutes and resuspended in 2 mL saline. Cultures were subjected to four cycles of freezing in liquid nitrogen and thawing in a 37 °C water bath. Cultures were then probe sonicated (on ice) at 25% amplitude for 10 sec. Sonicated cultures were centrifuged at 18,900 Xg for 5 min and supernatants were transferred to a clean tube and stored on ice. To measure urease activity of cell free extracts, the previously described assay was modified such that 20ul of cell-free extract were distributed into a 96-well plate in place of the whole cell bacterial suspensions. Acetohydroxamic acid (AHA), was used as a positive control. Percent of maximum urease activity was calculated using Area Under the Curve (AUC) relative to untreated cell free extracts of P. mirabilis.

[2] = target: T2, urease of P. mirabilis cell free extracts (Proteus mirabilis, UniProt P17086); assay type: biochemical; conditions: for type of urease inhibition: Michaelis-Menten parameters, Lineweaver-Burke plot
T2 construct: 20ul of cell-free extract were distributed into a 96-well plate in place of the whole cell bacterial suspensions; endogenous in cells; host or cells: Proteus mirabilis HI4320, urea-induced; freeze-thaw and sonication lysate, clarified supernatant
T2 sequence (P17086 whole entry): as the sequence (P17086 whole entry) above
T2 sequence (P17088 whole entry, further chain): as the sequence (P17088 whole entry) above
T2 sequence (P17087 whole entry, further chain): as the sequence (P17087 whole entry, further chain) above
Experimental: For the kinetic analysis of the urease reaction in the presence of urease dampening metabolites, urease activity assays were repeated with the P. mirabilis cell free extracts. Six different inhibitor concentrations that gave linear rates of reaction over a period of 120 min were tested for their effects on urease activity in the presence of urea concentrations ranging from 0 to 500 mM. Simple linear regression was performed on the absorbance (OD562) over 120 minutes for each condition and plotted as Initial velocity (slope) vs urea concentration. These initial hyperbolic plots were converted to double-reciprocal Lineweaver-Burke plots, and the pattern of inhibition inferred from the point of intersection of the lines. Finally, the Ki for a particular compound was determined by plotting the Km/Vmax ratio (the slope of the Lineweaver-Burke plots) of each line as a function of the inhibitor concentration as described by ref. [49]. The X-intercept corresponded to –Ki.

P. mirabilis urease [3] = target: T3, P. mirabilis urease (Proteus mirabilis, UniProt P17086); assay type: cell-based; conditions: for Combination index (CI): in combination with AHA; for Compound 2 %I alone: kphos
T3 construct: it utilizes whole bacterial cells, rather than isolated enzyme preparations; endogenous in cells; host or cells: Proteus mirabilis HI4320, live whole cells
T3 sequence (P17086 whole entry): as the sequence (P17086 whole entry) above
T3 sequence (P17088 whole entry, further chain): as the sequence (P17088 whole entry) above
T3 sequence (P17087 whole entry, further chain): as the sequence (P17087 whole entry, further chain) above
Experimental: To assess the synergistic effects of dampening metabolites when used in combination with each other, P. mirabilis urease activity was measured as described above. Between 4-6 different concentrations for each dampening metabolite were tested both alone and in combination (See Fig. 6a for example). […] To account for variability between experiments, all conditions tested were performed on a single 96-well plate with three technical replicates for each condition. To compare between biologic replicates, percent inhibition relative to untreated P. mirabilis was calculated for each condition using the average area under the curve over 120-180 minutes (so that the positive control activity curve saturated without any increase in the negative control curve).
Statistical analysis was conducted using a one sample T test of the combination index compared to a hypothetical value of 1 (additive effect). […] Therefore, combination indexes were calculated using a desired effect size less than 40% were indicated with an * in Fig. 6b and in Supplementary Data 5.

P. mirabilis urease [4] = target: T3, P. mirabilis urease; assay type: cell-based; conditions: for effect on P. mirabilis urease activity (whole cell): potassium phosphate buffer, dose response
Experimental: Urease activity was measured as described previously in triplicate with at least three biological replicates[21]. Briefly, bacteria were cultured for ~18 h in LB broth, concentrated to an OD600 of 4, washed once in saline, and diluted (1:10 for P. mirabilis and 1:50 for P. stuartii and M. morganii) into candidate dampening metabolites in potassium phosphate buffer or human urine pH7 and supplemented with 500 mM urea and 0.01% phenol red. Bacterial suspensions were distributed into a 96-well plate, incubated at 37 °C with double-orbital shaking in a Synergy H1 plate reader (BioTek), and absorbance (OD562) was measured every 60 seconds for 180 minutes. Isogenic urease mutants (Supplementary Data 1) served as negative controls for P. mirabilis and P. stuartii and a vehicle control served as a negative control for M. morganii.

Jack Bean Urease (JBU) = target: T4, Jack Bean Urease (JBU) (Canavalia ensiformis, UniProt P07374); assay type: biochemical; conditions: for JBU activity: 0.1 U JBU, 500 mM urea
T4 construct: purchased Sigma-Aldrich
T4 sequence (P07374 whole entry, looked up): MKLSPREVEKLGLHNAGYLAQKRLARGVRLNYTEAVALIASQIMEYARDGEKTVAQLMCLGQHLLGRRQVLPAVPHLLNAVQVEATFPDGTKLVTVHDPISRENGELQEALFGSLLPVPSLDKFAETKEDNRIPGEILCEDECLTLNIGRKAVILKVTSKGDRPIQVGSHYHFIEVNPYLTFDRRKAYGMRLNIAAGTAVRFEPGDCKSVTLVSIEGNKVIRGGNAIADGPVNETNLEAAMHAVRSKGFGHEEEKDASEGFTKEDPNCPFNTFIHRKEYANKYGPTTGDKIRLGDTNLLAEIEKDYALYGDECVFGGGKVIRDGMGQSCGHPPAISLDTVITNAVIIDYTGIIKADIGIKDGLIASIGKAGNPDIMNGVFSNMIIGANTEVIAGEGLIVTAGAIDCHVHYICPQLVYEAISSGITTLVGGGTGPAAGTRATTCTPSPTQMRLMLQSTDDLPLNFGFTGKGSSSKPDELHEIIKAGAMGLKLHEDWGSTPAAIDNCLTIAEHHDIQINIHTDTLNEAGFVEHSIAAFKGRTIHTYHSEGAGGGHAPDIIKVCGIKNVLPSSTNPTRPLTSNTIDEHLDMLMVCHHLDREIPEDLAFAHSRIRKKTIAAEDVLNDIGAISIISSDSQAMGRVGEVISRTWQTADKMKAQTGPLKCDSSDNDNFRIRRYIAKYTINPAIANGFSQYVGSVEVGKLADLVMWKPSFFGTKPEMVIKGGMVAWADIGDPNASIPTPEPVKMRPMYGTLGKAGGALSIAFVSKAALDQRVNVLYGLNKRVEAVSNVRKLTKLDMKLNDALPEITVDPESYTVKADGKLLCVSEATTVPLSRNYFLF
Experimental: To measure Jack Bean urease activity, the previously described assay was modified such that 0.1 U (1U liberates 1 µmol of ammonia from urea per minute) of JBU (Sigma-Aldrich urease from Canavalia ensiformis) were distributed into a 96-well plate in place of the bacterial suspensions. Acetohydroxamic acid (AHA), was used as a positive control and a vehicle control was used as a negative control. Percent of maximum urease activity was calculated using Area Under the Curve (AUC) relative to untreated bacteria of interest or untreated JBU. Urease activity measurement in MRSA was adapted from a recently published semi quantitative assay (See Supplementary materials for details)[48].
414 Supplementary Figure 13. Microbial metabolites dampen activity of purified Jack Bean
415 Urease (JBU). 0.1 U of JBU (1U liberates 1 µmol of ammonia from urea per minute) was
416 incubated at 37 °C with shaking in urease-dampening metabolites, 500mM urea, and phenol red.
417 A urea analogue, AHA, served as the positive control for inhibition of JBU. Absorbance
418 (OD562) was measured every 60 seconds for 90 minutes, and activity is expressed as percent of
419 maximum activity (% Max Activity) relative to untreated JBU. Graphs show mean±SD for 3
420 independent experiments with 3 technical replicates each. Data were analyzed by two tailed one
421 sample t-test to a hypothetical value of 100% activity. ***P<0.001, **P<0.002, *P<0.033.
(1 picture or pasted object on this page, not shown here)

SMILES | urease activity of cell free P. mirabilis extracts [1] | change of estimated Km on addition of metabolite [2] | change of estimated Vmax on addition of metabolite [2] | type of urease inhibition [2] | concentrations required to achieve a significant combination index (P. mirabilis urease [3]) | Combination index (CI) (P. mirabilis urease [3]) | Dampens urease activity (P. mirabilis urease [4]; biosynthetic pathway/functional group screen, highest concentration tested 20mM) | effect on P. mirabilis urease activity (whole cell) (P. mirabilis urease [4]) | JBU activity (Jack Bean Urease (JBU)) | Compound 2 %I alone (P. mirabilis urease [3]; Compound 2 [] alone 0.0782, assay date 2024 08 07) | Compound 2 %I alone (P. mirabilis urease [3]; Compound 2 [] alone 0.156, assay date 2024 08 07) | Compound 2 %I alone (P. mirabilis urease [3]; Compound 2 [] alone 0.156, assay date 2024 08 09) | sub-inhibitory concentrations that still decrease P. mirabilis urease activity (P. mirabilis urease [4]; concentrations not inhibiting growth/viability) | Urease dampening activity (P. mirabilis urease [4]; highest concentration tested 0.625mM) | Urease dampening activity (P. mirabilis urease [4]; screen of candidate metabolites, highest concentration tested 20mM, * Trending but not statistically significant, listed as Histamine HCl) | concentrations at which JBU activity was significantly inhibited (Jack Bean Urease (JBU))
Cl.O=C(O)Cc1cnc[nH]1 [4-imidazole acetate, 2-(1H-Imidazol-5-yl)acetic acid hydrochloride] | at least partially inhibiting | increase | decrease | mixed inhibitors | < 50 mM | < 1 | Yes | additional hits | inhibited | – | – | – | – | – | – | –
O.O=C(O)[C@H](O)Cc1cnc[nH]1 [D-imidazole lactate, D-imidazolelactic acid hydrate] | at least partially inhibiting | remain roughly unchanged | decrease | non-competitive inhibition | – | – | – | more potent activity profile compared to the L-imidazole lactate | inhibited | 34.9% | 60.4% | 49.2% | ≤ 0.0391 mM | Yes | – | –
NCCc1c[nH]cn1 [Histamine, histamine dihydrochloride] | at least partially inhibiting | increase | decrease | mixed inhibitors | < 50 mM | < 1 | – | reproducibly decreased | – | – | – | – | – | – | Yes | > 20 mM
